Patent US11655210B2, “Compound for improving L-arginine bioavailability” (The General Hospital Corporation, priority 2018, dated 2023)
Like-named read-outs stand apart in the source and are kept apart here.

Key:
[1] = tested on: NO production in Human Brain Microvascular Endothelial Cells (HBMVEC); experiment: In vitro NO detection assay (Nitric Oxide Cell-Based HTS Assay); conditions: 100 nM to 0.5 mM, analyzed every 15 mins for 1 h, Example 1 versus L-arginine, FIGS. 3-4
Method: “A” Bars: […]; “B” bars: 10 μM; “C” bars: 100 μM; “D” bars: 0.5 mM.
The following general procedures were performed for the NO detection assay. See, e.g., Nitric Oxide Cell-Based HTS Assay Kit technical data sheet, Biovision Incorporated; Catalog #K979-10, September 2016, the disclosure of which is incorporated herein by reference in its entirety.
1. Performed cell culture protocol as described in Example 2.
2. Warmed all reagents in 37° C. water bath.
3. Master mix: 3 μL dye to 1.5 mL of Assay buffer for at least 60 wells.
4. Standard curve master mix: 5 μL NO stock solution to 95 μL NO Buffer for at least 60 wells.
5. Media was aspirated from column 1B-1G before aliquoting standard curve solution, as shown below in Table 2.
6. Media was aspirated from 2B-2G through 6B-G before 50 μL aliquots of staining dye. This step was repeated for […] through 10B-10G.
7. Plates were incubated for 1 hour in 37° C.
8. After 1 hour, plates were transferred back into sterile conditions and washed 2× with EndoGro Media (previously warmed to 37° C.) before aliquoting the concentrations shown in Table 3 into each well.
9. Plates were incubated at 37° C. and analyzed every 15 mins for 1 h.

[2] = tested on: Human Brain Microvascular Endothelial Cells (HBMVEC); experiment: CellTox Green 24-hour dose dependent cytotoxicity assay; assay type: cell-based; conditions: for toxicity in the cellular model: 100 nM, 10 μM, 100 μM, 0.5 mM
Method: Cell cultures were prepared using the following general procedures.
1. Under aseptic conditions 1×20 mm sterile tissue culture dish was coated with sterile 1:100 collagen for two hours at room temperature.
2. Under aseptic conditions 2× sterile 96 well-plates were coated with sterile 50 μL 1:100 collagen for two hours at room temperature.
3. After 2 hr collagen was recollected into 50 mL conical tube.
4. The petri dish and 2×96 well-plates were washed with warmed PBS.
5. Once 60% confluency of HBMVEC was observed, the plate was prepped for passage.
6. Media was aspirated from dish and washed with 1×PBS.
7. 1 mL of Trypsin was added, and the plate was transferred to 37° C. incubator for 1-2 min until cells appeared detached.
8. The plate was transferred back into sterile conditions and 2 mL of EndoGro Basal Media was added to inhibit Trypsin reaction.
9. Cells were pipetted 20× and thoroughly mixed before transferring into 25 mL of EndoGro Basal Media.
10. 100 μL of this mixture was added into each well both 96 well-plate.
11. Left over 5.8 mL of cell solution was transferred to petri dish previously coated with collagen and washed with 1×PBS.
12. Plates were incubated for 48 hours at 37° C.
The following procedures were performed for the cell cytotoxicity assay (CellTox™ Green Cytotoxicity Assay; Promega Corporation). See also CellTox™ Green Cytotoxicity Assay, Instructions for Use of Products G8741, G8742, G8743, and G8731, revised May 2015, the disclosure of which is incorporated herein by reference in its entirety.
1. Samples containing 1:1000 L-Arginine (L-Arg; 100 nM, 10 μM, 100 μM, or 0.5 mL) or 1:1000 of 2-amino-5-guanidino-N-(4-guanidinobutyl)pentanamide (Example 1; 100 nM, 10 μM, 100 μM, or 0.5 mL) were prepared with EndoGro Basal Media without supplements (MWOS) into sterile 10×1 mL microcentrifuge tubes. For concentrations of 0, 1:1000 PBS to MWOS was made.
2. […]
4. Once the wells were treated, plates were incubated at 37° C. for 24 hours and analyzed at 485-500 nm/520-530 nm after cytotoxicity assay treatment.

[3] = cited from earlier work; for baseline plasma concentration of L-arginine: normal diet over 8 hours

Structure (SMILES)	capacity for mediating NO production [1]	toxicity in the cellular model [2]	toxicity in comparison to L-arginine ([2]; FIG. 2)	baseline plasma concentration of L-arginine ([3]; converted value) [µM]	baseline plasma concentration of L-arginine [3]	peak concentration ([3]; single oral 10 g dose, converted value) [µM]	absolute bioavailability ([3]; single oral 10 g dose)	peak concentration ([3]; single oral 10 g dose) [µg/mL]	time of peak concentration after administration ([3]; single oral 10 g dose) [h]
N=C(N)NCCCCNC(=O)C(N)CCCNC(=N)N (centres unmarked) [Example 1, 2-amino-5-guanidino-N-(4-guanidinobutyl)pentanamide]	nearly identical capacity for mediating NO production	non-toxic	no significant difference in toxicity	–	–	–	–	–	–
N=C(N)NCCC[C@H](N)C(=O)O [L-arginine]	nearly identical capacity for mediating NO production	non-toxic	–	~86.7	about 15.1±2.6 μg/mL	~287.0	about 20%	50.0	1
